The text below walks through data of ChEMBL document CHEMBL1121533, “Synthesis of 8-methoxy-15,16-dinor-6,8,10-trichothecatriene 12,13 alpha-epoxide and 12,13 beta-epoxide as potential antineoplastic agents” (J Med Chem, 1980).

Data set [1] relates to P388. Nature of the data set: Tested for in vivo antileukemic activity of compound against P388 at 50 mg/kg dose; NA means Not Active. Format: functional, organism-based. Also noted: dose 50 mg/kg. The conditions noted are these: Mus musculus.
Data set [2] relates to P388. Nature of the data set: Tested for in vivo antileukemic activity of compound against P388 at 25 mg/kg dose; NA means Not Active. The format is functional, organism-based. Also noted: dose 25 mg/kg. The conditions noted are these: Mus musculus.
Data set [3] has as its system P388. Nature of the data set: Tested for in vivo antileukemic activity of compound against P388 at 12.5 mg/kg dose; NA means Not Active. As to conditions: Mus musculus. Also noted: dose 12.5 mg/kg. The format is functional, organism-based.
The nature of data set [4]: Tested for in vitro cytotoxic potency of compound in 9KB assay. The format is cell-based. As to conditions: human, KB (9KB) cells; read-out: ED50 (the source's name).

The structures appear in SMILES notation. ≈ marks a conversion by molar mass, not a printed value. Calls of active or inactive are those of the source. The calls are words filed in the database; no cut-off is given here.

On to `COc1ccc2c(c1)[C@@]1(C)CC[C@@H](O2)C12CC2`, for which the ED50 result in the data set on P388 [1], with P388 [2] and in the data set on P388 [3] was “inactive” each time. In addition, the CC50 in data set [4] worked out at 26 µg/mL (≈ 113 µM).
